Results reported in patent US6537972B1, “Compositions and methods for inhibiting human immunodeficiency virus infection by down-regulating human cellular genes” (Subsidiary No. 3., Inc., priority 1997, dated 2003).

What was measured:
[1] = system: latent HIV provirus in OM10.1 cells; test: Inhibition of TNF-α induction of latent HIV provirus in OM10.1 cells (CD4 / p24 by flow cytometry); type: cell-based, HIV-1
Method: OM10.1 cells were cultured in RPMI 1640 glucose-free media prior to and during incubation with NADH dehydrogenase inhibitors and TNF-α induction. The inhibitors were added to the cells followed by TNF-α induction 1-2 hours later. The expression of CD4 by the cells was assessed by anti-CD4 antibody staining and flow cytometry after 24 hour incubation at 37° C.

OM10.1 cells = type: cell-based; details: human, 24 h, 100 nM
HIV-1SF33 = test: Infection of freshly isolated human PBLs with HIV-1SF33 in the presence of mofarotene (CD3-gated flow cytometry); type: cell-based; details: for % CD4+ in T cell population / % p24+ in CD4+ T population: HIV +, HIV-1SF33 TCID50 1000
Method: (§1) Human peripheral blood leukocytes (PBLs) were isolated using Ficoll-Hypaque density gradient separation. Cells were washed twice and resuspended in RPMI+10% FBS+2% human AB serum+penicillin/streptomycin/glutamine+100 Units/ml of IL-2 at a concentration of 0.5×10^6 cells/ml. PBLs were then activated with phytohemagglutinin at 0.5 μg/ml and placed in a humidified incubator at 37° C./[…]. After two days of activation, 10^6 cells were infected with HIV-1SF33 at TCID50 of 1000, in the presence of various concentrations of mofarotene: 0 μM, 1 μM, 0.5 μM, 0.1 μM, and 0.05 μM. A separate set of uninfected samples under identical concentrations of mofarotene were also maintained as controls. The samples were analyzed by flow cytometry at day 4 and day 6 post infection. The cells were gated for CD3 expression (for T cells). Then the expression of CD4 and viral p24 and CD4 was examined by bivariate dot plot.

[2] = system: human peripheral blood leukocytes (CD3+ T cells); test: Uninfected human PBLs under mofarotene (control samples, CD3-gated flow cytometry); type: cell-based; details: for % CD4+ in T cell population / % p24+ in CD4+ T population: HIV −, human PBLs; for % CD4+ in T cell population: CD3+ gated
Method: as §1

[3] = mofarotene 0.05 μM, human PBLs, day 6
[4] = mofarotene 0.1 μM, human PBLs, day 6
[5] = mofarotene 0.5 μM, human PBLs, day 6
[6] = mofarotene 1.0 μM, human PBLs, day 6
[7] = mofarotene 1.0 μM, human PBLs, day 6, listed as mofarotene

SMILES: C/C(=C\c1ccc(OCCN2CCOCC2)cc1)c1ccc2c(c1)C(C)(C)CCC2(C)C [Mofarotene]
- cells that retained CD4 expression ([1]; 100 nM, TNF-α-induced OM10.1 cells): 80%
- induction of latent HIV provirus in OM10.1 cells (retention of CD4 expression) ([1]; TNF-α-induced OM10.1 cells, 24 hour incubation, FIG. 25, 26): inhibited HIV-1 induction at even lower concentrations
- intracellular p24 levels in treated cells ([1]; compared with untreated controls): suppressed intracellular p24 levels
- cells that remained viable (OM10.1 cells): greater than 80%
- depletion of CD4+ T cells by HIV infection (HIV-1SF33; 1 μM, day 6, human PBLs): inhibited the depletion of CD4^+ T cells
- % CD4+ in T cell population (HIV-1SF33; [3]): 18%
- % p24+ in CD4+ T population (HIV-1SF33; [3]): 20.5%
- % CD4+ in T cell population (HIV-1SF33; [4]): 28%
- % p24+ in CD4+ T population (HIV-1SF33; [4]): 11.4%
- % CD4+ in T cell population (HIV-1SF33; [5]): 24%
- % p24+ in CD4+ T population (HIV-1SF33; [5]): 12.5%
- % CD4+ in T cell population (HIV-1SF33; [6]): 25%
- % p24+ in CD4+ T population (HIV-1SF33; [6]): 10%
- % CD4+ in T cell population (HIV-1SF33; [7]): ~25%
- % p24+ in CD4+ T population (HIV-1SF33; [7]): 10%
- difference between HIV-infected PBLs with or without mofarotene (HIV-1SF33; day 4 post-infection): little detectable difference
- % CD4+ in T cell population ([2]; mofarotene 0.05 μM, day 6): 33%
- % p24+ in CD4+ T population ([2]; mofarotene 0.05 μM, day 6): 0%
- % CD4+ in T cell population ([2]; mofarotene 0.1 μM, day 6): 34%
- % p24+ in CD4+ T population ([2]; mofarotene 0.1 μM, day 6): 0%
- % CD4+ in T cell population ([2]; mofarotene 0.5 μM, day 6): 34%
- % p24+ in CD4+ T population ([2]; mofarotene 0.5 μM, day 6): 0%
- % CD4+ in T cell population ([2]; mofarotene 1.0 μM, day 6): 36%
- % p24+ in CD4+ T population ([2]; mofarotene 1.0 μM, day 6): 0%
- percentage of CD4+ T cells, compound alone ([2]; day 4, uninfected samples): did not significantly alter
- expression level of CD3 on the cell surface ([2]; day 6): did not alter
- increase of the percentage of CD4+ T cells in uninfected samples, compound alone ([2]; day 6, effect called minimal): up to 4%
